{"source": "patent US6197769A", "about": "“Indazole amide compounds as serotoninergic agents” (Aziende Chimiche Riunite Angelini Francesco A.C.R.A.F. …, priority 1997, dated 2001)", "note": "Counter-ions that a name gives are not always drawn."}
{"biological_target": "T1, 5-HT4 Receptor (Rattus norvegicus, UniProt Q62758)", "T1 construct": "serotonin-induced relaxation of rat oesophageal tunica; from tissue; host or cells: rat oesophageal tunica", "T1 sequence (Q62758 whole entry)": "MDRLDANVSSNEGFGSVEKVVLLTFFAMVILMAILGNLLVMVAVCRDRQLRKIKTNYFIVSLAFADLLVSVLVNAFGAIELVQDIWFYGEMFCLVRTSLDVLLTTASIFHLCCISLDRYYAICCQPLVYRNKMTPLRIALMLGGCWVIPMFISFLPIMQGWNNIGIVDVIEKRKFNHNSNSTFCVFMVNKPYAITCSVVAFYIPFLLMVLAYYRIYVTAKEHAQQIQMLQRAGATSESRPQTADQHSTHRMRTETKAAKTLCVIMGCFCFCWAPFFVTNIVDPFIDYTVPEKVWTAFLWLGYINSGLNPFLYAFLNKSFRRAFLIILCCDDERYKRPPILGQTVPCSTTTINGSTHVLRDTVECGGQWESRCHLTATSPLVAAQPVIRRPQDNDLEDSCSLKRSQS", "experiment": "Antagonistic action on 5-HT4 receptor: inhibition of serotonin-induced relaxation of rat oesophageal tunica pre-contracted with carbachol", "conditions": "antagonism, read-out: pA2 (converted)", "method": "Antagonistic Action on 5-HT4 Receptor\nThe antagonistic action of the compounds of the formula (I) was evaluated by testing the influence of the compound under evaluation on serotonin-induced relaxation of rat oesophageal tunica pre-contracted with carbachol according to the method described by J. D. Gale et al. in \"Br. J. Pharmacol.\", 111, 332-338, (1994).", "units": {"Kb": "nM"}}
{"molecule": "CC(C)n1nc(C(=O)NCC2CCN(CCc3ccccc3)CC2)c2ccccc21", "note": "[AFR 306, N3-{[1-(2-phenylethyl)-4-piperidinyl]methyl}-1-isopropyl-1H-3-indazolecarboxamide hydrochloride]", "Kb": 0.437}
{"molecule": "CC(C)n1nc(C(=O)NCC2CCN(CCCCc3ccccc3)CC2)c2ccccc21", "note": "[AFR 603, N3-{[1-(4-phenylbutyl)-4-piperidinyl]methyl}-1-isopropyl-1H-3-indazolecarboxamide oxalate]", "Kb": 0.759}
{"molecule": "CC(C)n1nc(C(=O)NCC2CCN(CCC3CCCCC3)CC2)c2ccccc21", "note": "[AFR 604, N3-{[1-(2-cyclohexylethyl)-4-piperidinyl]methyl}-1-isopropyl-1H-3-indazolecarboxamide hydrochloride]", "Kb": 6.46}
{"molecule": "CC(C)n1nc(C(=O)NCC2CCN(CCc3ccccn3)CC2)c2ccccc21", "note": "[AFR 605, N3-({1-[2-(2-pyridinyl)ethyl]4-piperidinyl}methyl)-1-isopropyl-1H-3-indazolecarboxamide hydrochloride]", "Kb": 0.0158}
